From ChEMBL document CHEMBL1201862, “PubChem BioAssay data set” (2004)
The source made the active and inactive calls.

How the values were obtained:
[1] = molecular target: T1, Neuropeptides B/W receptor type 1 (Homo sapiens, UniProt P48145); assay: Fluorescence-based dose response cell-based high throughput screening assay to identify antagonists of the G-protein coupled receptor 7 (GPR7). [Related pubchem assays: 1952 (Screening assay (GPR7 antagonists).), 1880 (Summary AID.)]; format: functional
T1 sequence (P48145 whole entry): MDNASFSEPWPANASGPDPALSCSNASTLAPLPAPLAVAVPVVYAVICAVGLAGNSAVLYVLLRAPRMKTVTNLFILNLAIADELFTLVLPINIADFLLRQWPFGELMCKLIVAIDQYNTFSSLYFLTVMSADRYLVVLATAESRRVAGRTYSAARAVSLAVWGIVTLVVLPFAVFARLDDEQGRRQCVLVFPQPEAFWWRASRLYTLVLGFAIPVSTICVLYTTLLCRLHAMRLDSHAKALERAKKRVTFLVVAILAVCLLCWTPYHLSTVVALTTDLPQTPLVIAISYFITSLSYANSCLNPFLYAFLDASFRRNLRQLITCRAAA

[2] = molecular target: Melanin-concentrating hormone receptor 1 (Homo sapiens, UniProt Q99705); assay: Fluorescence-based counterscreen for antagonists of the G-protein coupled receptor 7 (GPR7): cell-based high throughput dose response assay to identify antagonists of the melanin-concentrating hormone receptor 1 (MCHR1).; format: functional
[3] = molecular target: Troponin, cardiac muscle (Homo sapiens, UniProt P19429+P45379+P63316); assay: Fluorescence-based biochemical high throughput dose response assay for activators of the calcium sensitivity of cardiac Regulated Thin Filaments (RTF). [Related pubchem assays (depositor defined):AID493008, AID493018, AID504382, AID504383]; format: protein-complex assay
[4] = molecular target: T2, Tyrosine-protein phosphatase non-receptor type 11 (Homo sapiens, UniProt Q06124); assay: SHP2 phosphatase inhibition, dose response, selectivity assay for STEP inhibitor project, biochemical (AID 602367); format: functional; conditions: read-out: IC50_Mean
T2 sequence (Q06124 whole entry): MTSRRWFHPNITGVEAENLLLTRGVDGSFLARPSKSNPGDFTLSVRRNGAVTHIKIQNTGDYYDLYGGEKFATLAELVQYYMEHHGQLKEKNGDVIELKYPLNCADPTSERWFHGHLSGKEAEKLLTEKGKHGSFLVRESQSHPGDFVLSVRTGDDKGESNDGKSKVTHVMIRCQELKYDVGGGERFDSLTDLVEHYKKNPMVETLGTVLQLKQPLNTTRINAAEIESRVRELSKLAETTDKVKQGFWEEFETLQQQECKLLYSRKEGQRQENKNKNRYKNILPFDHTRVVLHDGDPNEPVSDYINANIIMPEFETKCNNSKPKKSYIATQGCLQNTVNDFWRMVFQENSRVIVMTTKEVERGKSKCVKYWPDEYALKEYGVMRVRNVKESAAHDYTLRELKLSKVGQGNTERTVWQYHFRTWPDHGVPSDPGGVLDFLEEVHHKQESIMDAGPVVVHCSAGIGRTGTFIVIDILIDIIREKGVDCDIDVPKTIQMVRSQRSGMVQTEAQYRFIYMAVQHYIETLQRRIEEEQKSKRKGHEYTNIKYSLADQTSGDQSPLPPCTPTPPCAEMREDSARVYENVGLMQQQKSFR

[5] = molecular target: T3, Tyrosine-protein phosphatase non-receptor type 22 (Homo sapiens, UniProt Q9Y2R2); assay: SAR LYP1 Fluorescent Assay using OMFP substrate for In Vitro dose response studies - Set 4. [Related pubchem assays (depositor defined):AID1779, AID1784, AID2140, AID2686]; format: functional
T3 sequence (Q9Y2R2 whole entry): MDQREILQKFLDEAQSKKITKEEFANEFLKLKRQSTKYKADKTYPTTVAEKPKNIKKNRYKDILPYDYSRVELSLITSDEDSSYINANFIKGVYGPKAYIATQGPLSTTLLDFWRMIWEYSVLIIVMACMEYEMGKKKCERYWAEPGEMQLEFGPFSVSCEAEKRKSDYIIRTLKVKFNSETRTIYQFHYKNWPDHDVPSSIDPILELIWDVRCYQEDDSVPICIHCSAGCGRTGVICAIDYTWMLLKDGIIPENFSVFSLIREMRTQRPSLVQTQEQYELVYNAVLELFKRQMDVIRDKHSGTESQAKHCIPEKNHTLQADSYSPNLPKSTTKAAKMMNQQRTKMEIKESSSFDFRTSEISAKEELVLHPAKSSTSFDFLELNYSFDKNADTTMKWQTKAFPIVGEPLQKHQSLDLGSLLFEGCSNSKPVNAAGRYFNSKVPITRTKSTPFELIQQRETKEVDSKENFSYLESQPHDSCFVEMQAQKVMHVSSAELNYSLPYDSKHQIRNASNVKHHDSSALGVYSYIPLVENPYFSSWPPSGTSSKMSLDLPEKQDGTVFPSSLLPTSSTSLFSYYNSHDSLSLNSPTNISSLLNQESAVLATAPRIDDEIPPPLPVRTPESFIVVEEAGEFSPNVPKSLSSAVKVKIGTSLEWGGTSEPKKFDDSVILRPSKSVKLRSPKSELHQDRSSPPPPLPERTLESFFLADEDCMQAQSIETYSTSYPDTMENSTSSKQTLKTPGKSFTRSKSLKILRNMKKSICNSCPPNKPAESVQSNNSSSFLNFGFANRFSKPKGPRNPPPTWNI

**Q.** With CCN1/C(=C/c2ccc3cc(C)ccc3[n+]2CC)Sc2cc(C)c(C)cc21 as the molecule, how does the IC50 [1] read?
**A.** 9200 nM (active)

**Q.** And the IC50 [2]?
**A.** > 4870 nM (active)

**Q.** Nc1ccc2nc3c(O)nc(S)nc3nc2c1 was tested. Which EC50 [3] did it give?
**A.** 1140 nM (active)

**Q.** With CSc1ccc(C=NNc2ccc(S(=O)(=O)Nc3ccccc3C(=O)O)cc2[N+](=O)[O-])cc1 as the molecule, how does the IC50 [4] read?
**A.** 1110 nM (active)

**Q.** For O=C(O)COc1ccc(/C=N/NC(=O)c2ccc(-c3csc(Nc4ccc(Cl)cc4)n3)cc2)cc1, which IC50 [5] is on record?
**A.** 1470 nM (active)
